Key:
[1] = test system: reserpine-induced hypothermia; test: Reserpine-induced hypothermia in the rat; type: in vivo, male rats CF1; conditions: reserpine 5 mg/kg i.p., mean to 6th hour vs controls
Protocol: (§1) The thymoanaleptic properties of the compounds of the invention were determined by means of reserpine-induced ptosis and hypothermia in the rat.
An intraperitoneal dose of 5 mg/kg of reserpine was administered to batches of 5 male rats CF1 weighing an average of 300 g. Thirty minutes later, the rectal temperature was determined and then a dose of the compound to be tested was given by oral route, except to the control animals. The rectal temperature of all the animals including the controls was taken every hour up to the 6th hour.
The difference between these two averages enabled an estimation to be made regarding the antagonistic effect of the compounds of the invention on the hypothermia induced by reserpine.

[2] = test system: stereotypies induced by amphetamine; test: Potentiation of the stereotypies induced by amphetamine; type: in vivo, rats
Protocol: It is commonly admitted that amphetamine induces stereotypies by stimulating the dopaminergic receptors and inhibiting the re-uptake of dopamine into the neuron.
The thymoanaleptics potentiate these stereotypies.
Thirty minutes later, a dose of 10 mg/kg of the compound to be tested was given by oral route. Note was taken of the intensity of the stereotypies every 30 minutes for 150 minutes in accordance with the following scale which indicates the behaviour of the animal.
0 : the rat is motionless and asleep
1 : the rat is motionless and awake
3 : the rat stands on its hind paws and sniffs the lid of its cage in a stereotyped manner.
4 : the rat licks the walls of its cage in a stereotyped manner
5 : the rat bites the bars of its cage or sniffs the shavings of its litter in a stereotyped manner
6 : the rat chews the shavings in a stereotyped manner
The average of the 5 results obtained for each batch was calculated and compared with the average obtained with the control animals.
The difference between these averages represents the mean increase of the steroetypies of the treated animals in comparison with the controls.

reserpine-induced ptosis = test: Reserpine-induced ptosis in the rat; type: in vivo, male rats of the CF1 strain; conditions: reserpine 5 mg/kg i.p., score scale 0-4, mean to 6th hour vs controls
Protocol: as §1
An intraperitoneal dose of 5 mg/kg of reserpine was administered to batches of 5 male rats of the CF1 strain weighing an average of 300 g.
Thirty minutes later a dose of the compound to be studied was given by oral route and the inhibitory effect of the reserpine was noted every hour up to the sixth hour. Ptosis was evaluated for each eye in accordance with the following scale:
4 : eyelids completely closed.
The difference between these two averages represents the average decrease of the ptosis in the treated animals as compared to the controls.

toxicity of yohimbine = test: Potentiation of the toxicity of yohimbine (test of QUINTON); type: in vivo, male mice; conditions: Mus musculus; 50 mg/kg oral; yohimbine hydrochloride 25 mg/kg i.p.; mortality after 24 hours
Protocol: Yohimbine is a substance which provokes an increase in the serotonine level in the brain or a decrease in norepinephrine according to the author.
For this purpose, the test of QUINTON was used which is described in Brit. J. Pharmacol. 21, 51 (1963). […] […] The percentage of mortality was noted after 24 hours.
Table III hereunder expresses the percentage of potentiation of the toxicity due to yohimbine in comparison with the controls.
The percentage in question was determined 24 hours after the administration of yohimbine.

[3] = test system: aggressivity of killer rats; test: Aggressivity of killer rats; type: in vivo, male rats; conditions: Rattus norvegicus, ip, 0.5 h, 30 minutes after administration
Description: If, under certain conditions, male rats are kept alone in individual cages for several weeks, the become spontaneously aggressive towards any mouse, which they kill as soon as it is placed in the same cage. Mice were introduced one after another into cages containing an isolated rat and a selection was made of the rats which immediately killed three mice. In this way batches of 6 to 8 rats were constituted. The rats were then given the compound to be studied by intraperitoneal route in such a way that each batch received a higher dose than the preceding batch. […] Table V which follows contains the results obtained 30 minutes after administration of the compound to be studied.

[4] = test system: cholinergic effects provoked by tremorine; test: Cholinolytic properties: action with respect to tremorine; type: in vivo, male mice of the OF1 strain; conditions: tremorine 10 mg/kg, difference vs controls
Protocol: When injected into mice, tremorine and its metabolite, oxotremorine, produce central cholinergic effects, i.e. normal and provoked tremor as well as peripheral cholinergic effects i.e. weeping, sweating diarrhoea and salivation.
Male mice of the OF1 strain weighing 22 g, were divided into batches of 10. Each batch with the exception of the control animals, received, by oral route, a dose of the compound to be tested.
Thirty minutes later, 10 mg/kg of tremorine were administered to all the batches and thirty minutes after the injection of tremorine note was taken of the cholinergic effects on each animal in accordance with the following scale: […]

[5] = 10 mg/kg oral, amphetamine 10 mg/kg i.p., every 30 min for 150 min
[6] = 20 mg/kg, same conditions (amphetamine 10 mg/kg i.p.)

| SMILES | Average inhibition of hypothermia (positive °C) ([1]; 10 mg/kg oral) | Average increase of the stereotypies [2, 5] | Average decrease of Ptosis (reserpine-induced ptosis; 10 mg/kg oral) | mortality at 50 mg/kg (toxicity of yohimbine) | also measured |
| --- | --- | --- | --- | --- | --- |
| NC(COc1cccc2ccoc12)=NO [Compound 7, 2-(7-Benzofuryloxy)-acetamidoxime] | 0.6 °C | 4.8 | 1.4 | 60% |  |
| CCc1oc2ccccc2c1OC(CC)C(N)=NO (stereo not drawn) [Compound 10, 2-(2-Ethyl-3-benzofuryloxy)-butyramidoxime] |  | 5.6 | 0.8 | 10% |  |
| CC(C)(Oc1cccc2ccccc12)C(N)=NO [Compound 11, 2-(1-Naphtyloxy)-2-methyl-propionamidoxime] |  |  | 0.7 |  | Average inhibition of hypothermia (positive °C) ([1]; 20 mg/kg oral): 0.5 °C |
| Cc1oc2ccccc2c1OCC(N)=NO [Compound 12, 2-(2-Methyl-3-benzofuryloxy)-acetamidoxime] |  |  | 0.7 |  | inhibition in vivo at 25 mg/kg ([3]; 25 mg/kg i.p.): 27% |
| CCc1oc2ccccc2c1OCCC(N)=NO [Compound 13, 3-(2-Ethyl-3-benzofuryloxy)-propionamidoxime] |  | 2.4 | 0.7 |  | Central response tremor: Normal ([4]; 25 mg/kg oral): 0; Central response tremor: Provoked ([4]; 25 mg/kg oral): 0; Peripheral cholinergic response: Salivat. ([4]; 25 mg/kg oral): 0; Peripheral cholinergic response: Sweating ([4]; 25 mg/kg oral): 0; Peripheral cholinergic response: Weeping ([4]; 25 mg/kg oral): 0 |
| Cc1oc2ccc(OCC(N)=NO)cc2c1C [Compound 15, 2-(2,3-Dimethyl-5-benzofuryloxy)-acetamidoxime] |  | 1 | 0.5 | 10% |  |
| Cc1oc2ccccc2c1OC(C)C(N)=NO (stereo not drawn) [Compound 16, 2-(2-Methyl-3-benzofuryloxy)-propionamidoxime] |  |  | 0.5 |  |  |
| CCc1oc2ccccc2c1OC(C)C(N)=NO (stereo not drawn) [Compound 17, 2-(2-Ethyl-3-benzofuryloxy)-propionamidoxime] |  | 1.2 | 0.4 | 20% | Central response tremor: Normal ([4]; 25 mg/kg oral): -0.8; Central response tremor: Provoked ([4]; 25 mg/kg oral): 0; Peripheral cholinergic response: Salivat. ([4]; 25 mg/kg oral): 0; Peripheral cholinergic response: Sweating ([4]; 25 mg/kg oral): 0; Peripheral cholinergic response: Weeping ([4]; 25 mg/kg oral): 0 |
| Cc1oc2ccccc2c1OCCC(N)=NO [Compound 19, 3-(2-Methyl-3-benzofuryloxy)-propionamidoxime] |  |  | 0.3 | 10% |  |
| CCC(Oc1c(C(C)C)oc2ccccc12)C(N)=NO (stereo not drawn) [Compound 20, 2(2-Isopropyl-3-benzofuryloxy)-butyramidoxime] | 0.8 °C |  | 0.3 |  |  |
| Cc1oc2cc(OCC(N)=NO)ccc2c1C [Compound 21, 2-(2,3-Dimethyl-6-benzofuryloxy)-acetamidoxime] |  | 4.2 | 0.3 | 40% |  |
| Cc1oc2ccccc2c1OC(C)(C)C(N)=NO [Compound 22, 2-(2-Methyl-3-benzofuryloxy)-2-methyl-propionamidoxime] | 0.5 °C | 4.2 | 0.3 |  | Central response tremor: Normal ([4]; 10 mg/kg oral): 0; Central response tremor: Provoked ([4]; 10 mg/kg oral): 0; Peripheral cholinergic response: Salivat. ([4]; 10 mg/kg oral): 0; Peripheral cholinergic response: Sweating ([4]; 10 mg/kg oral): 0; Peripheral cholinergic response: Weeping ([4]; 10 mg/kg oral): 0 |
| Cc1oc2ccc(OCCC(N)=NO)cc2c1C [Compound 23, 3-(2,3-Dimethyl-5-benzofuryloxy)-propionamidoxime] | 0.3 °C |  | 0.2 |  |  |
| CC(Oc1c(C(C)C)oc2ccccc12)C(N)=NO (stereo not drawn) [Compound 24, 2-(2-Isopropyl-3-benzofuryloxy)-propionamidoxime] | 0.8 °C | 3.8 | 0.2 | 30% |  |
| NC(COc1ccc2ccoc2c1)=NO [Compound 25, 2-(6-Benzofuryloxy)-acetamidoxime] |  | 4.4 | 0.2 | 30% |  |
| CCc1oc2ccccc2c1OCC(N)=NO [Compound 27, 2-(2-Ethyl-3-benzofuryloxy)-acetamidoxime] |  |  |  | 20% | Average decrease of Ptosis (reserpine-induced ptosis; 20 mg/kg oral): 0.3 |

| SMILES | Average inhibition of hypothermia (positive °C) ([1]; 10 mg/kg oral) | Average increase of the stereotypies [2, 5] | Average decrease of Ptosis (reserpine-induced ptosis; 10 mg/kg oral) | mortality at 50 mg/kg (toxicity of yohimbine) | also measured |
| --- | --- | --- | --- | --- | --- |
| CC(Oc1ccc2ccoc2c1)C(N)=NO (stereo not drawn) [Compound 28, 2-(6-Benzofuryloxy)-propionamidoxime] |  |  |  |  | Average inhibition of hypothermia (positive °C) ([1]; 100 mg/kg oral): 1.1 °C; Average decrease of Ptosis (reserpine-induced ptosis; 100 mg/kg oral): 2.4 |
| CC(Oc1ccc2occc2c1)C(N)=NO (stereo not drawn) [Compound 29, 2-(5-Benzofuryloxy)-propionamidoxime] |  |  |  |  | Average inhibition of hypothermia (positive °C) ([1]; 100 mg/kg oral): 0.8 °C; Average increase of the stereotypies [2, 6]: 5; Average decrease of Ptosis (reserpine-induced ptosis; 100 mg/kg oral): 2.4 |
| CCC(Oc1ccc2ccoc2c1)C(N)=NO (stereo not drawn) [Compound 31, 2-(6-Benzofuryloxy)-butyramidoxime] |  |  |  |  | Average decrease of Ptosis (reserpine-induced ptosis; 100 mg/kg oral): 2.3 |
| Cc1cc2cc(OCCC(N)=NO)ccc2o1 [Compound 32, 3-(2-Methyl-5-benzofuryloxy)-propionamidoxime] |  |  |  |  | Average decrease of Ptosis (reserpine-induced ptosis; 100 mg/kg oral): 2.3 |
| Cc1cc2cc(OCC(N)=NO)ccc2o1 [Compound 33, 2-(2-Methyl-5-benzofuryloxy)-acetamidoxime] |  |  |  |  | Average increase of the stereotypies [2, 6]: 4; inhibition in vivo at 20 mg/kg ([3]; 20 mg/kg i.p.): 60%; Average decrease of Ptosis (reserpine-induced ptosis; 100 mg/kg oral): 2.0 |
| CC(C)c1oc2ccccc2c1OC(C)(C)C(N)=NO [Compound 35, 2-(2-Isopropyl-3-benzofuryloxy)-2-methyl-propionamidoxime] | 0.7 °C | 3 |  |  |  |
| CC(C)c1oc2ccccc2c1OCC(N)=NO [Compound 36, 2-(2-Isopropyl-3-benzofuryloxy)-acetamidoxime] | 0.7 °C | 1.8 |  |  |  |
| CCC(Oc1ccc2ccccc2c1)C(N)=NO (stereo not drawn) [Compound 37, 2-(2-Naphthyloxy)-butyramidoxime] | 0.5 °C | 1.8 |  |  |  |
| CC(C)(Oc1cccc2c1OCCO2)C(N)=NO [Compound 38, 2-[(1,4-Benzodioxanyl)-5-oxyl]-2-methyl-propionamidoxime] | 0.5 °C |  |  | 10% |  |
| CCC(Oc1c(C)oc2ccccc12)C(N)=NO (stereo not drawn) [Compound 39, 2-(2-Methyl-3-benzofuryloxy)-butyramidoxime] | 0.3 °C |  |  | 40% |  |
| CC(C)(Oc1ccc2ccccc2c1)C(N)=NO [Compound 40, 2-(2-Naphthyloxy)-2-methyl-propionamidoxime] | 0.2 °C |  |  |  |  |
| CCC(Oc1cccc2c(C)c(C)oc12)C(N)=NO (stereo not drawn) [Compound 41, 2-(2,3-Dimethyl-7-benzofuryloxy)-butyramidoxime] |  |  |  |  | Average inhibition of hypothermia (positive °C) ([1]; 100 mg/kg oral): 1.1 °C |
| CCC(Oc1cccc2ccoc12)C(N)=NO (stereo not drawn) [Compound 42, 2-(7-Benzofuryloxy)-butyramidoxime] |  |  |  | 60% |  |
| CCC(Oc1cccc2occc12)C(N)=NO (stereo not drawn) [Compound 43, 2-(4-Benzofuryloxy)-butyramidoxime] |  | 5.5 |  | 60% |  |
| Cc1oc2c(OC(C)C(N)=NO)cccc2c1C (stereo not drawn) [Compound 44, 2-(2,3-Dimethyl-7-benzofuryloxy)-propionamidoxime] |  |  |  | 40% |  |
| CC(Oc1cccc2c1OCCO2)C(N)=NO (stereo not drawn) [Compound 45, 2-[(1,4-Benzodioxanyl)-5-oxy]-propionamidoxime] |  | 3 |  | 10% |  |
